Here are results for 5 molecules from patent publication US8637665B2, “Pyrrolo[2,L-C][L,4]benzodiazepine-benzothiazole or benzoxazole conjugates linked through piperazine moiety and process for the preparation thereof” (priority 2010, dated 2014).

SMILES strings stand for the structures. Read-outs that look alike come from different tables or passages of the source. Where only a bound is given, the exact number is not on record here.

For data set [1], the system named is duplex-form calf thymus DNA (CT-DNA). As to the kind of experiment: Thermal denaturation studies with calf thymus DNA (DNA binding affinity). Conditions: [PBD]:[DNA] 1:5, CT-DNA 100 μM, ligand 20 μM, pH 7.00. The essentials: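 CT-DNA (100 μm in phosphate) with PBD (20 μm; 1:5 PBD/DNA molar ratio) in 10 mM sodium phosphate, 1 mM Na2EDTA, pH 7.00, incubated at 37° C for 0 and 18 h. A260 monitored while heating at 1° C min^−1 over 40-110° C; Tm from d(A260)/dT maxima, ΔTm versus drug-free DNA.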

The test system of data set [2] is KB (oral cancer) cell line. Nature of the data set: In vitro anticancer activity, SRB assay, KB. The data set is classed as cell-based, human. The conditions noted are these: Homo sapiens, 48 h. The essentials:
(§1)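 Cells are exposed to compound continuously for 48 h across at least five 10-fold dilutions, then stained with sulforhodamine B to estimate growth. GI50 and LC50 come from the dose-response curves.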

The subject of data set [3] is eight tumour cells lines derived from seven cancer types. As to the kind of experiment: In vitro anticancer activity, SRB assay, panel of eight cell lines. The conditions noted are these: Homo sapiens, range over the eight cell lines per compound; read-out: GI50 range against cancer cell lines. It is filed as cell-based. As for the experimental part:
Anticancer activity: In vitro biological activity studies were carried out at the Advance Center for Treatment Research & Education in Cancer (ACTREC), Navi Mumbai.
The compounds were evaluated for in vitro anticancer activity against eight tumour cells lines derived from seven cancer types (non-small-cell lung, colon, oral, cervix, ovarian, prostate, and breast cancer) as shown in Table 2. For each compound, dose response curves for each cell line were measured at a minimum of five concentrations at 10 fold dilutions. A protocol of 48 h continuous drug exposure was used and a sulforhodamine B (SRB) protein assay was used to estimate cell viability or growth. The concentration causing 50% cell growth inhibition (GI50) and 50% cell death (LC50, −50% growth) compared with the control was calculated. Compounds 9a-9l have been evaluated for their in vitro cytotoxicity in eight cell lines from seven human cancer types of lung (Hop-62, A-549) colon (COLO-205) cervix (Si—Ha), ovary (A-2780), prostate (PC3) breast (MCF7), oral (KB). The results are expressed as percent of cell growth determined relative to that of untreated control cells (Table-8 and table-9).
(In general: Sulforhodamine B stains cellular protein and so reports cell mass.)

For data set [4], the system named is MCF-7 (breast cancer) xenografts. Nature of the data set: In vivo efficacy study on xenograft MCF-7. Conditions: MCF-7 xenograft, scid male mice; compared with positive control adriamycin. An excerpt: (§2) References may be made to patent “WO/2008/099416” wherein Benzothiazole or benzoxazole linked Pyrrolo[2,1-c][1,4] benzodiazepine hybrid as anticancer agent has been reported. References may be made to patent “U.S. Pat. No. 6,979,684” wherein Pyrrolo[2,1-c][1,4] benzodiazepine and naphthalimide are linked through piperazine moiety. The linking of pharmacophore like napthalimide and piperazine to pyrroloberizodiazepine can not be considered similar to a pharmacophore like benzothiazole as each pharmacophore is known for certain biological property. In the present investigation the benzothiaole and piperazine subunits are considered to be a different heterocyclic moieties compared to the earlier reported pharmacophores like napthalimide. Therefore, this structural variation of benzothiazole with piperazine moiety has been utilized for DNA binding aspect. Keeping this in mind, these new conjugates have been designed and synthesized to further improve the anticancer activity including the DNA binding affinity. The anticancer activity may not depend on the DNA binding activity. […] Moreover, one of the potent conjugate 9f (IICT-302) of this series has been evaluated for its in vivo efficacy studies (in scid male mice) against MCF-7 (breast cancer) and PC-3 (prostate cancer) xenografts by using adriamycin as a positive control.
FIG. 2 represents in vivo efficacy study of compound 9f on xenograft MCF-7.
(§3) The structural variation of benzothiazole/benzoxazole with piperazine moiety has been utilized for DNA binding aspect. Moreover, one of the potent conjugate 9f (IICT-302) of this series has been evaluate for its in vivo efficacy studies against MCF-7 (breast cancer) and PC-3 (prostate cancer) by using Adriamycin as positive control.

For data set [5], the system named is PC-3 (prostate cancer) xenografts. As to the kind of experiment: In vivo efficacy study on xenograft PC3. Conditions: PC-3 xenograft, scid male mice; compared with positive control adriamycin.
From the text: as §2
FIG. 3 represents in vivo efficacy study of compound 9f on xenograft PC3.
as §3

Data set [6] has as its system SiHa (cervix cancer) cell line. As to the kind of experiment: cells. Conditions: Homo sapiens, SiHa, 48 h. It is filed as cell-based. The essentials: as §1
Data set [7] relates to PC 3 (prostate cancer) cell line. As to the kind of experiment: cells. The data set is classed as cell-based. The conditions noted are these: Homo sapiens, 48 h. In short, it runs like this: as §1
For data set [8], the system named is MCF 7 (breast cancer) cell line. Nature of the data set: cells. It is filed as cell-based. Conditions: Homo sapiens, MCF7, 48 h. In short, it runs like this:
as §1

Data set [9] concerns HOP 62 (lung cancer) cell line. Nature of the data set: cells. The data set is classed as cell-based. The conditions noted are these: Homo sapiens, HOP-62, 48 h. In short, it runs like this:
as §1

The test system of data set [10] is A 2780 (ovary cancer) cell line. Nature of the data set: cells. The data set is classed as cell-based. Conditions: Homo sapiens, A2780, 48 h. In short, it runs like this: as §1
For data set [11], the system named is Colo 205 (colon cancer) cell line. Nature of the data set: cells. The conditions noted are these: Homo sapiens, COLO 205, 48 h. The data set is classed as cell-based. In short, it runs like this: as §1
The test system of data set [12] is A 549 (lung cancer) cell line. As to the kind of experiment: cells. It is filed as cell-based. The conditions noted are these: Homo sapiens, A549, 48 h. The essentials:
as §1

In another data set the test system is SNB-19 cell line. Conditions: comparative data, hybrids without piperazine; read-out: GI50 SNB-19 (hybrides with out piperazine); cited from earlier work.
Data set [13] deals with HOP 62 (lung cancer) cell line. The conditions noted are these: comparative data, hybrids without piperazine; read-out: GI50 HOP 62 (hybrides with out piperazine); cited from earlier work.
Another data set deals with A498 cell line. Conditions: comparative data, hybrids without piperazine; read-out: GI50 A498 (hybrides with out piperazine); cited from earlier work.
Data set [14] deals with Colo 205 (colon cancer) cell line. Conditions: comparative data, hybrids without piperazine; read-out: GI50 Colo 205 (hybrides with out piperazine); cited from earlier work.
The subject of data set [15] is IGROV1 (ovary cancer) cell line. The conditions noted are these: comparative data, hybrids without piperazine; read-out: GI50 IGROV1 (hybrides with out piperazine); cited from earlier work.
For data set [16], the system named is MCF 7 (breast cancer) cell line. Conditions: comparative data, hybrids without piperazine; read-out: GI50 MCF 7 (hybrides with out piperazine); cited from earlier work.
The test system of data set [17] is A 549 (lung cancer) cell line. Conditions: comparative data, hybrids without piperazine; read-out: GI50 A 549 (hybrides with out piperazine); cited from earlier work.
The subject of data set [18] is duplex-form calf thymus DNA (CT-DNA). The conditions noted are these: comparative data, hybrids without piperazine, cited from earlier work.
The subject of data set [19] is PC 3 (prostate cancer) cell line. Conditions: comparative data, hybrids without piperazine; read-out: GI50 PC 3 (hybrides with out piperazine); cited from earlier work.

Regarding `COc1cc(-c2nc3ccccc3s2)ccc1OCCCCN1CCN(CCCCOc2cc3c(cc2OC)C(=O)N2CCC[C@H]2C=N3)CC1` [Compound 9f, 7-Methoxy-8-[4-(4-{4-[4(1,3-benzothiazol-2-yl)-2-methoxyphenoxy]butyl}piperazin-1-yl)butyl]oxy-(11aS)-1,2,3,11a-tetrahydro-5H-pyrrolo[2,1-c][1,4]benzodiazepin-5-one], in data set [1] (0 h), the “ΔTm after incubation at 37° C. for 0 h” value came to 15.5 °C. The “ΔTm after incubation at 37° C. for 18 h” value in data set [1] (18 h) turned out to be 15.9 °C. Further, the concentration for 50% growth inhibition (GI50) (commonly the concentration that inhibits growth by half) in data set [2] (read-out: GI50 KB, 48 h drug exposure, SRB, mean of three determinations) was less than 10 nM; in data set [3], less than 10 nM; in data set [6] (read-out: GI50 SiHa, 48 h drug exposure, SRB, mean of three determinations) it was less than 10 nM; in data set [7] (read-out: GI50 PC 3), less than 10 nM; in data set [8] (read-out: GI50 MCF 7) it was less than 10 nM; in data set [9] (read-out: GI50 HOP 62, 48 h drug exposure, SRB, mean of three determinations), less than 10 nM. Moreover, the 50% growth inhibitory concentration (GI50) in [10] (read-out: GI50 A 2780, 48 h drug exposure, SRB, mean of three determinations) is less than 10 nM; in [11] (read-out: GI50 Colo 205, 48 h drug exposure, SRB, mean of three determinations) it was less than 10 nM; in data set [12] (read-out: GI50 A 549, 48 h drug exposure, SRB, mean of three determinations) it was less than 10 nM. Also, the CC50 in data set [2] (read-out: LC50 KB, 50% cell death, 48 h drug exposure, SRB) was 180 nM; in data set [7] (read-out: LC50 Pc 3, 50% cell death, 48 h drug exposure, SRB), 2400 nM; in [10] (read-out: LC50 A 2780, 50% cell death, 48 h drug exposure, SRB), 89 nM; in [11] (read-out: LC50 Colo 205) it was greater than 100000 nM; in [12] (read-out: LC50 A 549, 50% cell death, 48 h drug exposure, SRB) it was greater than 100000 nM. The “RTV in in vivo efficacy study” value in [4] and in [5] was “good RTV” in each case. The “survival data in in vivo efficacy study” value in data set [4] and in data set [5] was “good survival data” in each case. Besides, the “toxicity in in vivo efficacy study” value in [4] and in [5] was “less toxicity” throughout. The LC50 (concentration causing 50% cell death) in [6] (read-out: LC50 SiHa, 50% cell death, 48 h drug exposure, SRB) was 2500 nM; in data set [8] (read-out: LC50 MCF 7, 50% cell death, 48 h drug exposure, SRB) it was less than 10 nM. The LC50 (in general, the concentration lethal to half of the exposed cells or organisms) in [9] (read-out: LC50 HOP 62, 50% cell death, 48 h drug exposure, SRB) was determined as 2400 nM.
Consider `COc1cc2c(cc1OCCCCOc1ccc(-c3nc4ccccc4s3)cc1)N=C[C@@H]1CCCN1C2=O` [Compound 20a], for which the concentration for 50% growth inhibition (GI50) is 1520 nM in the data set on SNB-19 cell line; 406 nM in data set [13]; 2020 nM in the data set on A498 cell line; 340 nM in data set [14]; 2420 nM in data set [15]; 320 nM in data set [16]. For the same molecule, the GI50 is 2630 nM in data set [17] and 290 nM in data set [19]. Also, the “ΔTm after incubation at 37° C. for 0 h (PBD hybrids with out piperizine)” value (from here on “ΔTm … for 0 h (PBD hybrids with out piperizine)”) in [18] is 0.5 °C. Also, in data set [18], the “ΔTm after incubation at 37° C. for 18 h (PBD hybrids with out piperizine)” value (“ΔTm … for 18 h (PBD hybrids with out piperizine)” below) was 0.5 °C.
With `COc1cc(-c2nc3ccccc3s2)ccc1OCCCCOc1cc2c(cc1OC)C(=O)N1CCC[C@H]1C=N2` [Compound 20b], the 50% growth inhibitory concentration (GI50) in the data set with SNB-19 cell line is 1610 nM; in data set [13], 1410 nM; with A498 cell line, 1600 nM; in [14] it was 690 nM; in data set [15] it was 3060 nM; in [16], 400 nM. The GI50 is 2660 nM in [17] and 410 nM in data set [19]. The “ΔTm … for 0 h (PBD hybrids with out piperizine)” value in [18] is 0.5 °C. Also, in data set [18], the “ΔTm … for 18 h (PBD hybrids with out piperizine)” value is 0.5 °C.
On to `COc1cc2c(cc1OCCCCCOc1ccc(-c3nc4ccccc4s3)cc1)N=C[C@@H]1CCCN1C2=O` [Compound 20c], for which the GI50 is 2940 nM with SNB-19 cell line; 412 nM in data set [13]; 2260 nM in the data set on A498 cell line; 380 nM in data set [14]; 2690 nM in data set [15]; 330 nM in [16]. In addition, the 50% growth inhibitory concentration (GI50) is 2590 nM in data set [17] and 230 nM in data set [19]. The “ΔTm … for 0 h (PBD hybrids with out piperizine)” value in [18] is 4.1 °C. Also, the “ΔTm … for 18 h (PBD hybrids with out piperizine)” value in data set [18] was 4.3 °C.
Turning to `COc1cc(-c2nc3ccccc3s2)ccc1OCCCCCOc1cc2c(cc1OC)C(=O)N1CCC[C@H]1C=N2` [Compound 20d], the GI50 was 210 nM with SNB-19 cell line; 40 nM in [13]; 170 nM with A498 cell line; 60 nM in data set [14]; 344 nM in data set [15]; 10 nM in [16]. The GI50 in data set [17] was 240 nM; in data set [19] it was 40 nM. Besides, the “ΔTm … for 0 h (PBD hybrids with out piperizine)” value in data set [18] was 6.2 °C. Besides, the “ΔTm … for 18 h (PBD hybrids with out piperizine)” value in data set [18] is 6.3 °C.
